The values below come from ChEMBL document CHEMBL3227944, “Beta-adrenoceptor studies. 5. 1H NMR and IR spectroscopic analysis of the conformation of the hydrohalide salts of beta-adrenoceptor-blocking aryloxypropanolamines. Evidence for a seven-membered ring structure with participation of two hydrogen bonds” (J Med Chem, 1979).

Broadly, the pA2 is a measure of antagonist potency on a negative log scale.

The structures appear in SMILES notation. Active and inactive are the calls of the source. No cut-off for these calls is given here.

Assay [1] is described as follows: Antagonist activity at guinea pig trachea beta-adrenoceptor assessed as inhibition of isoprenaline-induced effect. The format is tissue-based, Cavia porcellus.
A short description of assay [2]: Antagonist activity at guinea pig atrium beta-adrenoceptor assessed as inhibition of isoprenaline-induced effect. The class given is tissue-based, Cavia porcellus, Cardiac atrium.
The species named for assay [3] is Cavia porcellus. Description: Competitive antagonist activity at guinea pig trachea beta-adrenoceptor assessed as inhibition of isoprenaline-induced effect up to 10^-4 M. The class given is tissue-based.
Assay [4] is filed under the species Cavia porcellus. Description: Competitive antagonist activity at guinea pig atrium beta-adrenoceptor assessed as inhibition of isoprenaline-induced effect up to 3 X 10^-5 M. The class given is tissue-based. To be noted: Cardiac atrium.

`Cc1cccc(OCC(CO)NC(C)C)c1.Cl` (configuration not stated): the pA2 in assay [1] is listed as 5.21; in assay [2] it was 5.08.

On to `COC(CNC(C)C)COc1cccc(C)c1.Cl` (configuration not stated), for which the result in assay [3] was inactive. In addition, the pA2 in assay [2] turned out to be 5.41.

Consider `Cc1cccc(OCC(CCl)NC(C)C)c1.Cl` (configuration not stated), for which the result in assay [3] was inactive. Moreover, the pA2 in assay [2] worked out at 4.86.

Regarding `Cc1cccc(OCC(Cl)CNC(C)C)c1` (configuration not stated), the result in assay [4] and in assay [3] was inactive.

Consider `Cc1cccc(OCC(O)CNC(C)C)c1.Cl` (configuration not stated), for which the pA2 in assay [1] is recorded as 7.97; in assay [2] it was 8.76.

Regarding `COCC(COc1cccc(C)c1)NC(C)C.Cl` (configuration not stated), the outcome in assay [3] was inactive. Further, the pA2 in assay [2] was 4.66.
